Molecular target: T1, β-cell KATP channel (human SUR1 and human Kir6.2) (Homo sapiens, UniProt Q09428)
T1 construct: gene ABCC8; SUR1 and Kir6.2 co-expressed in COS-1 cells; with ATP-sensitive inward rectifier potassium channel 11
Test: whole-cell patch clamp, inhibition of diazoxide-induced K+ current
Type: cell-based

T1 sequence (Q09428 whole entry): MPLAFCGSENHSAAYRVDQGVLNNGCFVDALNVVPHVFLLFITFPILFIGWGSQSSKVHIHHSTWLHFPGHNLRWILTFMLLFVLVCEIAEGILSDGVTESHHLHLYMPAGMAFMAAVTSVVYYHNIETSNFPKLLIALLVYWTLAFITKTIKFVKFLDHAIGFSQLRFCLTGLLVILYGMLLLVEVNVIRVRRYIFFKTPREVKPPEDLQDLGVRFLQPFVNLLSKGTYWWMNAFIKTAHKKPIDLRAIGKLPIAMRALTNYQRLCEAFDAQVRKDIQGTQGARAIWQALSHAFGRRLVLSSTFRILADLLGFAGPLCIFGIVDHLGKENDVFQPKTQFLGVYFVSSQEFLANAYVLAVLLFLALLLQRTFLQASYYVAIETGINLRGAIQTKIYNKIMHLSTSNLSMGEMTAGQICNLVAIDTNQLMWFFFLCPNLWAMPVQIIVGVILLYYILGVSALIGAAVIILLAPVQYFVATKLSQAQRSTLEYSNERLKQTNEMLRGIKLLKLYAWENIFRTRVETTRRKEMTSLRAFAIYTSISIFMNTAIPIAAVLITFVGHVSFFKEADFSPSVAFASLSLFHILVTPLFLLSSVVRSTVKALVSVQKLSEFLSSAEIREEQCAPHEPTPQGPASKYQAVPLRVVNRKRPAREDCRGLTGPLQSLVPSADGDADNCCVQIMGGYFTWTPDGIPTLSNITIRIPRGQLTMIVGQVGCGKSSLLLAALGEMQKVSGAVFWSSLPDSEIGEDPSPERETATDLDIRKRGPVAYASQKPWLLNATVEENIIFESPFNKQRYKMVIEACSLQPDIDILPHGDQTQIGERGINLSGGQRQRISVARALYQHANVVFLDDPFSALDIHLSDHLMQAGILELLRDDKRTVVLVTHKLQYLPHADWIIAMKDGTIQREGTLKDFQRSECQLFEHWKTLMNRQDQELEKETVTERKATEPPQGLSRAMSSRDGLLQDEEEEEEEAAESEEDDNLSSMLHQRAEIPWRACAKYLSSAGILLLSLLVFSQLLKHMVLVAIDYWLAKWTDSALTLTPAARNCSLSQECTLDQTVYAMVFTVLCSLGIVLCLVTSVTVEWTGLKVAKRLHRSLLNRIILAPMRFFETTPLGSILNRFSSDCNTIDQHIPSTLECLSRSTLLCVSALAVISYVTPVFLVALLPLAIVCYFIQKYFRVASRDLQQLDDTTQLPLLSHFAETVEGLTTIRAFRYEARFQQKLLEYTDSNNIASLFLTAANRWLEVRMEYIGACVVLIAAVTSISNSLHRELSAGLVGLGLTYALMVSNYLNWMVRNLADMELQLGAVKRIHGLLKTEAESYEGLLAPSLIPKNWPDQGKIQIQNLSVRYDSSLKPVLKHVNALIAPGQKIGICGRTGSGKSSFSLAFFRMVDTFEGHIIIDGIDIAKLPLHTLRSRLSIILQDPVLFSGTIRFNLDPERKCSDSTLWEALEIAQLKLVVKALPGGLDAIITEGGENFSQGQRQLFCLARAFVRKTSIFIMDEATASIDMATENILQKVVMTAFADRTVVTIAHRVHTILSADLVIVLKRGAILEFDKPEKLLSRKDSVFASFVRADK
T1 sequence (Q14654 whole entry partner): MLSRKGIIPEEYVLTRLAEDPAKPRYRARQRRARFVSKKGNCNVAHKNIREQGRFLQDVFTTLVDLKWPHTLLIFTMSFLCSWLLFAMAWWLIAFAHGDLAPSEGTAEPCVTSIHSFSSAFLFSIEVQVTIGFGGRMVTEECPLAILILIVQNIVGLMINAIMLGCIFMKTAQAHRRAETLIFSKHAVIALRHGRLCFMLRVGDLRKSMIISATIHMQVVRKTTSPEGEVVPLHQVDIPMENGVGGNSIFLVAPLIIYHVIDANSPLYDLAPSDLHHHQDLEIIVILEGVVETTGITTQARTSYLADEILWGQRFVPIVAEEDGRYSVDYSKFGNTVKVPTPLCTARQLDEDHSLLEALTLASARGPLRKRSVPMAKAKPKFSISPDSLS

IC50: 860 nM
SMILES: Cc1ccc(S(=O)(=O)NC(=O)NN2CC3CCCC3C2)cc1 (stereo not shown) [gliclazide]

— article PMC5072725, “A Novel Diphenylthiosemicarbazide Is a Potential Insulin Secretagogue for Anti-Diabetic Agent” (PLoS ONE, 2016)
